Values quoted from earlier work, collected in patent publication US11266615B2, “Pyrimethamine-based pharmaceutical compositions and methods for fabricating thereof” (Harrow IP, LLC, priority 2018, dated 2022).

Settings: background statement

In the case of `CCc1nc(N)nc(N)c1-c1ccc(Cl)cc1` [pyrimethamine, 5-(4-chlorophenyl)-6-ethyl-pyrimidine-2,4-diamine], the solubility in water is listed as “poor”.
